Positions of bridges follow the written chain, without caps; N, C: chain ends. Non-standard residues stand in square brackets, D forms with d. Residues, ends and D or L forms follow the SMILES beside them. *: point of attachment. 5FAM = O=C1OC2(c3ccc(O)cc3Oc3cc(O)ccc32)c2ccc(C(=O)*)cc21; βAla = NCCC(=O)O

Experimental findings from article PMC8116058, “De novo macrocyclic peptides dissect energy coupling of a heterodimeric ABC transporter by multimode allosteric inhibition” (eLife, 2021) are described below.

For this assay, the target named is T1, TmrAB reconstituted in liposomes (Thermus thermophilus, UniProt Q72J04+Q72J05).
T1 sequence (Q72J05 1-600): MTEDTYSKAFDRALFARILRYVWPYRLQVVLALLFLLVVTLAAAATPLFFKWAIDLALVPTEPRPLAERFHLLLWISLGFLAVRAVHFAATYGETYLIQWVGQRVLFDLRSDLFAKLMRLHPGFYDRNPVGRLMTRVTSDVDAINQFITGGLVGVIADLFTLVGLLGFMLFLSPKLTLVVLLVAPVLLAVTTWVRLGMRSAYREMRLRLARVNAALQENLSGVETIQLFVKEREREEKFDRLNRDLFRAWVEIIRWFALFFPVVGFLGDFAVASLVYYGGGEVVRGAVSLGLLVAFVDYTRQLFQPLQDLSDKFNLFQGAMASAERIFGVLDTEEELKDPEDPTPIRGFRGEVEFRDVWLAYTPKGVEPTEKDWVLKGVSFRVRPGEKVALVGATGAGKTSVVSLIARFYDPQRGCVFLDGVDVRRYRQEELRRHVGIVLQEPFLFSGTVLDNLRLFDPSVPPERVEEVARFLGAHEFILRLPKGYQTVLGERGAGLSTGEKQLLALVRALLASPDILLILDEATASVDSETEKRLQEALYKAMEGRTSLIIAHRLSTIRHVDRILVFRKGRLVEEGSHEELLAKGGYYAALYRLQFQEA
T1 sequence (Q72J04 1-578): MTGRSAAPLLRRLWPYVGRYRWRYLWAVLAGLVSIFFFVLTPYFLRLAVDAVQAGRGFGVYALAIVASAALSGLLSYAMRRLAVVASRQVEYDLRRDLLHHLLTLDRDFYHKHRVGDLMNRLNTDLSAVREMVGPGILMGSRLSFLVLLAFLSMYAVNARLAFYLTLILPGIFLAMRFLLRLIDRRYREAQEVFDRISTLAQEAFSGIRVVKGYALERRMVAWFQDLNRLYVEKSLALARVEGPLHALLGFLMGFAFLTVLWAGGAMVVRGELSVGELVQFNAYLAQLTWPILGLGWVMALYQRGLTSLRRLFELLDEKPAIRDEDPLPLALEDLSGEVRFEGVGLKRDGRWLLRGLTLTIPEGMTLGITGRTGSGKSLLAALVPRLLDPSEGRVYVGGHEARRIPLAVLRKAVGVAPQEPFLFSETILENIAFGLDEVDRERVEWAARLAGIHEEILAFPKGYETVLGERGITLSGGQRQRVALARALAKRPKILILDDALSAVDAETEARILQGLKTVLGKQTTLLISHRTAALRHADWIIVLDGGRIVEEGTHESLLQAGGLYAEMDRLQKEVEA
The assay is described as follows: Filter-based transport assay, CP^Fs tested as substrates. The assay is classed as biochemical. The conditions noted are these: TmrAB 0.4 µM in liposomes, C4F 3 µM or CP^F 1 µM, 5 min 45°C. The text has this:
In order to investigate the functional impact of CPs, we examined the effect of the CPs on ATP hydrolysis and substrate transport of TmrAB (Figure 3A). We reconstituted TmrAB in liposomes and first assayed the ATPase activity. […] We next set out to investigate peptide transport by TmrAB using a filter-based transport assay. To investigate whether CPs are recognized as substrates by TmrAB, we added fluorescein-labeled CP^Fs and examined ATP-dependent translocation. In contrast to the linear substrate peptide C4F, none of the CP^Fs were transported by TmrAB (Figure 3C). Next, we examined ATP-dependent transport of C4F peptides in the presence and absence of the different CPs.
Figure 3. CP^Fs are potent inhibitors of ATP turnover and substrate transport. (A) Experimental scheme of ATP hydrolysis and peptide transport by TmrAB. (B) CP^Fs inhibit ATP hydrolysis. TmrAB in liposomes (100 nM) was incubated with ATP (2 mM, traced with [γ^32P]-ATP), and MgCl2 (5 mM) in the presence and absence of CP^Fs (1 µM) for 10 min at 45°C. Autohydrolysis was determined in the absence of TmrAB, and background turnover was conducted in the presence of EDTA (10 mM). Release of [γ^32P] was quantified by thin layer chromatography. (C) CP^Fs are not transported by TmrAB. TmrAB (0.4 µM) reconstituted in liposomes was incubated with C4F peptide (3 µM) or CP^Fs (1 µM) in the presence of ATP/ADP (3 mM) and MgCl2 (5 mM) for 5 min at 45°C. Since CP^Fs were dissolved in maximal 0.5% (v/v) of DMSO, C4F plus 0.5% DMSO served as control. Proteoliposomes were washed on filter plates, and transported peptides were quantified at λex/em = 485/520 nm. (D) Inhibition of substrate translocation. TmrAB in liposomes (0.4 µM) were incubated with C4F peptide (3 µM), ATP/ADP (3 mM), and MgCl2 (5 mM) in the presence and absence of CP^Fs (1 µM) for 15 min at 45°C. Transported peptides were quantified as described in (C). In (B–C), mean values ± SD (n = 3) are shown. Figure 3—source data 1. Source data for Figure 3.
TmrAB in liposomes (0.4 µM) were incubated with ATP/ADP (3 mM), MgCl2 (5 mM), C4F peptide (3 µM), and CP^Fs (1 µM) for 15 min at 45°C. […] Proteoliposomes were solubilized by adding SDS (1% [v/v]) in transport buffer for 10 min at 20°C. Transported peptides were quantified at λex/em = 485/520 nm using a microplate reader (CLARIOstar, BMG LABTECH).

In turn, `CC[C@H](C)[C@@H]1NC(=O)[C@H]([C@@H](C)O)NC(=O)[C@H](CC(C)C)NC(=O)[C@H](Cc2c[nH]c3ccccc23)NC(=O)[C@H](Cc2ccccc2)NC(=O)[C@H](CC(N)=O)NC(=O)[C@H](CCC(=O)O)NC(=O)[C@H](CC(C)C)NC(=O)[C@H](CS)NC(=O)[C@H](Cc2c[nH]cn2)NC(=O)[C@H](CO)NC(=O)[C@@H](Cc2ccc(O)cc2)NC(=O)CSC[C@@H](C(=O)NCC(=O)N[C@@H](CO)C(=O)NCCC(=O)NCCC(=O)N[C@@H](CCCNC(=N)N)C(=O)N[C@@H](CCCCNC(=O)c2ccc3c(c2)C(=O)OC32c3ccc(O)cc3Oc3cc(O)ccc32)C(N)=O)NC(=O)[C@H](CC(C)C)NC1=O` [CP6] ({CH2CO}-[dY]SHCLENFWLTILCGS[βAla][βAla]RK(5FAM)-NH2; thioether N-14) gave a Transported peptide (ADP 3 mM (background)) of 0.38 µmol·g/min and a Transported peptide (ATP 3 mM) of 0.33 µmol·g/min.
In the case of `CC(C)C[C@@H]1NC(=O)[C@H](Cc2ccccc2)NC(=O)CNC(=O)[C@H](CO)NC(=O)[C@H](Cc2ccccc2)NC(=O)[C@H](CC(=O)O)NC(=O)[C@@H]2CCCN2C(=O)[C@H]([C@@H](C)O)NC(=O)[C@@H](Cc2ccc(O)cc2)NC(=O)CSC[C@@H](C(=O)NCC(=O)N[C@@H](CO)C(=O)NCCC(=O)NCCC(=O)N[C@@H](CCCNC(=N)N)C(=O)N[C@@H](CCCCNC(=O)c2ccc3c(c2)C(=O)OC32c3ccc(O)cc3Oc3cc(O)ccc32)C(N)=O)NC(=O)[C@H](C)NC(=O)[C@H](CC(N)=O)NC(=O)[C@H](CCCNC(=N)N)NC(=O)[C@H](CC(C)C)NC(=O)[C@H](Cc2ccccc2)NC(=O)[C@H](C)NC1=O` [CP12] ({CH2CO}-[dY]TPDFSGFLAFLRNACGS[βAla][βAla]RK(5FAM)-NH2; thioether N-16), the Transported peptide is, setting by setting: (ADP 3 mM (background)) 0.55 µmol·g/min; (ATP 3 mM) 0.44 µmol·g/min.
On the same counts, the results for `CC[C@H](C)[C@@H]1NC(=O)[C@H](Cc2c[nH]c3ccccc23)NC(=O)[C@H](CC(N)=O)NC(=O)[C@H](C)NC(=O)[C@H](CO)NC(=O)[C@@H]2CCCN2C(=O)[C@H](CC(=O)O)NC(=O)[C@@H](Cc2ccc(O)cc2)NC(=O)CSC[C@@H](C(=O)NCC(=O)N[C@@H](CO)C(=O)NCCC(=O)NCCC(=O)N[C@@H](CCCNC(=N)N)C(=O)N[C@@H](CCCCNC(=O)c2ccc3c(c2)C(=O)OC32c3ccc(O)cc3Oc3cc(O)ccc32)C(N)=O)NC(=O)[C@H]([C@@H](C)O)NC(=O)[C@H](CC(C)C)NC(=O)[C@H](CC(C)C)NC(=O)[C@H](C(C)C)NC(=O)[C@H](CC(C)C)NC1=O` [CP13] ({CH2CO}-[dY]DPSANWILVLLTCGS[βAla][βAla]RK(5FAM)-NH2; thioether N-14; C-terminus assumed) are 0.28 µmol·g/min and 0.33 µmol·g/min.
As for `CC(C)[C@@H]1NC(=O)[C@H](Cc2ccccc2)NC(=O)[C@@H]2CCCN2C(=O)[C@H](CC(N)=O)NC(=O)[C@H](Cc2c[nH]c3ccccc23)NC(=O)[C@H](C(C)C)NC(=O)[C@H](Cc2ccc(O)cc2)NC(=O)[C@H](Cc2ccccc2)NC(=O)[C@@H](Cc2ccc(O)cc2)NC(=O)CSC[C@@H](C(=O)NCC(=O)N[C@@H](CO)C(=O)NCCC(=O)NCCC(=O)N[C@@H](CCCNC(=N)N)C(=O)N[C@@H](CCCCNC(=O)c2ccc3c(c2)C(=O)OC32c3ccc(O)cc3Oc3cc(O)ccc32)C(N)=O)NC(=O)[C@H](CCCCN)NC(=O)[C@H](Cc2ccccc2)NC1=O` [CP14] ({CH2CO}-[dY]FYVWNPFVFKCGS[βAla][βAla]RK(5FAM)-NH2; thioether N-12; C-terminus assumed), the Transported peptide reads like this: (ADP 3 mM (background)) 0.25 µmol·g/min; (ATP 3 mM) 0.26 µmol·g/min.
